Assays:
Experiment in all cases: Bliss excess, mean over the matrix (fraction); higher = more synergy
[1] = system: NCI-H23 (Lung Adenocarcinoma)
Summary of the method: (§1)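 Cell lines in DMEM/F12 or RPMI with 10% FBS were plated in 1536-well plates, held 24 hours at 37°C, 5% CO2, then given two-drug dose matrices for 72 hours (DMSO typically 0.2%). Viability was read by CellTiter-Glo 2.0 luminescence and scaled as inhibition from 0 (vehicle wells) to 1 (blank wells). Combination Emax is the second-highest inhibition in the matrix; Bliss excess is observed combination effect minus expected EA + EB − EA·EB, EA and EB being single-agent effects.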

[2] = system: RCM-1 (Colorectal Carcinoma)
Summary of the method: as §1

[3] = system: KE-37 (T-Lymphoblastic Leukemia)
Summary of the method: as §1

[4] = system: TE-8 (Esophageal Squamous Cell Carcinoma)
Summary of the method: as §1

SF539 (Glioblastoma) = system: SF539 (Glioblastoma)
Summary of the method: as §1

A2058 (Melanoma) = system: A2058 (Melanoma)
Summary of the method: as §1

[5] = system: PANC-03-27 (Pancreatic Carcinoma)
Summary of the method: as §1

[6] = system: RERF-GC-1B (Gastric Carcinoma)
Summary of the method: as §1

LN-229 (Glioblastoma) = system: LN-229 (Glioblastoma)
Summary of the method: as §1

[7] = system: 23132-87 (Gastric Carcinoma)
Summary of the method: as §1

[8] = system: HCT-15 (Colorectal Carcinoma)
Summary of the method: as §1

WM793B (Melanoma) = system: WM793B (Melanoma)
Summary of the method: as §1

[9] = system: COLO-680N (Esophageal Squamous Cell Carcinoma)
Summary of the method: as §1

[10] = system: RERF-LC-Sq1 (Squamous Cell Lung Carcinoma)
Summary of the method: as §1

[11] = system: HEC-1 (Endometrial Carcinoma)
Summary of the method: as §1

[12] = system: MKN45 (Gastric Carcinoma)
Summary of the method: as §1

[13] = system: PC-3_[JPC-3] (Lung Adenocarcinoma)
Summary of the method: as §1

[14] = system: LB996-RCC (Kidney Carcinoma)
Summary of the method: as §1

[15] = system: SU-DHL-10 (B-Cell Non-Hodgkin's Lymphoma)
Summary of the method: as §1

[16] = system: RKN (Other Solid Carcinomas)
Summary of the method: as §1

| SMILES | Bliss excess [1] | Bliss excess [2] | Bliss excess [3] | Bliss excess [4] | Bliss excess (SF539 (Glioblastoma)) | Bliss excess (A2058 (Melanoma)) | Bliss excess [5] | Bliss excess [6] | Bliss excess (LN-229 (Glioblastoma)) | Bliss excess [7] | Bliss excess [8] | Bliss excess (WM793B (Melanoma)) | Bliss excess [9] | Bliss excess [10] | Bliss excess [11] | Bliss excess [12] | Bliss excess [13] | Bliss excess [14] | Bliss excess [15] | Bliss excess [16] |
| --- | --- | --- | --- | --- | --- | --- | --- | --- | --- | --- | --- | --- | --- | --- | --- | --- | --- | --- | --- | --- |
| COc1cccc2c1C(=O)c1c(O)c3c(c(O)c1C2=O)C[C@@](O)(C(=O)CO)C[C@@H]3O[C@H]1C[C@H](N)[C@H](O)[C@H](C)O1 [Doxorubicin] + Cc1cc2ncnn2cc1Nc1ncc2c(n1)n(C1CCOCC1)c(=O)n2C [AZD7648] (first compound max 1 µM, 7x7, partner max 10 µM) | 0.0413 | 0.0199 | 0.0912 | 0.0947 | 0.0403 | 0.0185 | 0.0557 | -0.0142 | -0.0159 | 0.049 | 0.0644 | 0.0438 | 0.0063 | 0.0444 | 0.004 | 0.0162 | -0.027 | 0.0561 | 0.0982 | 0.0697 |
| COc1cc2ncnc(Nc3ccc(F)c(Cl)c3)c2cc1OCCCN1CCOCC1 [Gefitinib] + CC(C)n1c(=O)n(C)c2cnc3cc(F)c(-c4ccc(OCCCN5CCCCC5)nc4)cc3c21 [AZD1390] (first compound max 10 µM, 7x7, partner max 0.3 µM) | -0.0466 | -0.0395 | -0.0791 | -0.075 | -0.0347 | -0.0343 | -0.0223 | -0.092 | -0.077 | -0.025 | -0.0533 | -0.0816 | -0.0252 | -0.0938 | -0.0442 | -0.046 | -0.03 | -0.0069 | -0.0254 | -0.0646 |
| CS(=O)(=O)CCNCc1ccc(-c2ccc3ncnc(Nc4ccc(OCc5cccc(F)c5)c(Cl)c4)c3c2)o1 [Lapatinib] + C[C@@H](Oc1cc(-c2cnn(C3CCNCC3)c2)cnc1N)c1c(Cl)ccc(F)c1Cl [Crizotinib] (first compound max 10 µM, 7x7, partner max 10 µM) | -0.0265 | -0.0107 | 0.0236 | -0.0294 | -0.0621 | -0.0237 | -0.0111 | -0.0237 | -0.0396 | 0.0195 | -0.0205 | -0.0192 | -0.017 | -0.039 | -0.021 | -0.0063 | -0.0824 | -0.0196 | -0.0087 | -0.05 |
| CC(=O)c1c(C)c2cnc(Nc3ccc(N4CCNCC4)cn3)nc2n(C2CCCC2)c1=O [Palbociclib] + CC1(C)CCC(CN2CCN(c3ccc(C(=O)NS(=O)(=O)c4ccc(NCC5CCOCC5)c([N+](=O)[O-])c4)c(Oc4cnc5[nH]ccc5c4)c3)CC2)=C(c2ccc(Cl)cc2)C1 [Venetoclax] (first compound max 10 µM, 7x7, partner max 1 µM) | -0.0199 | -0.0717 | 0.0258 | -0.0784 | -0.0164 | -0.0231 | -0.0545 | -0.048 | -0.0652 | -0.0416 | 0.0105 | 0.0241 | -0.0445 | 0.0475 | -0.0489 | -0.0481 | -0.0487 | 0.0044 | -0.0873 | -0.0841 |
| CC(=O)c1c(C)c2cnc(Nc3ccc(N4CCNCC4)cn3)nc2n(C2CCCC2)c1=O [Palbociclib] + Cc1c2c(nn1C)CSCc1cc(n(C)n1)CSc1cc(c3ccccc3c1)OCCCc1c(C(=O)O)n(C)c3c-2c(Cl)ccc13 [AZD5991] (first compound max 10 µM, 7x7, partner max 1 µM) | -0.0562 | -0.0561 | 0.0783 | -0.108 | -0.0637 | 0.0085 | -0.0242 | -0.0116 | -0.057 | -0.198 | 0.0011 | -0.0134 | -0.0341 | -0.0228 | -0.0336 | -0.0556 | -0.0377 | -0.0238 | -0.0199 | -0.0557 |
| CC(=O)c1c(C)c2cnc(Nc3ccc(N4CCNCC4)cn3)nc2n(C2CCCC2)c1=O [Palbociclib] + Cn1cnc2c(F)c(Nc3ccc(Br)cc3Cl)c(C(=O)NOCCO)cc21 [Selumetinib] (first compound max 10 µM, 7x7, partner max 10 µM) | -0.0057 | -0.0286 | 0.0207 | -0.0454 | -0.0345 | 0.0131 | -0.0015 | -0.0329 | 0.001 | -0.0683 | 0.0538 | -0.0173 | -0.0207 | -0.0488 | -0.0391 | -0.0092 | -0.0288 | -0.0426 | 0.0392 | -0.0279 |
| COc1cccc(OCCCN)c1-c1cc(Nc2cnc(C#N)cn2)n[nH]1 [Prexasertib] + C=CCn1c(=O)c2cnc(Nc3ccc(N4CCN(C)CC4)cc3)nc2n1-c1cccc(C(C)(C)O)n1 [AZD1775] (first compound max 1 µM, partner max 1 µM) | 0.0334 | -0.0248 | 0.0311 | 0.0893 | 0.0187 | 0.0994 | -0.0327 | 0.049 | -0.0177 | 0.0641 | 0.0406 | 0.0129 | -0.0054 | 0.0621 | 0.109 | -0.0561 | 0.0258 | 0.0427 | 0.0558 | 0.117 |
| COc1cccc(OCCCN)c1-c1cc(Nc2cnc(C#N)cn2)n[nH]1 [Prexasertib] + CCc1c2c(nc3ccc(O)cc13)-c1cc3c(c(=O)n1C2)COC(=O)[C@]3(O)CC [SN-38] (first compound max 1 µM, 7x7, partner max 0.3 µM) | -0.0001 | -0.0729 | -0.0182 | 0.0456 | -0.0091 | 0.123 | -0.0381 | 0.0318 | -0.022 | -0.0307 | 0.051 | -0.0489 | 0.0609 | -0.0081 | 0.0893 | -0.0493 | -0.0729 | -0.0334 | 0.035 | 0.134 |

Reference: the supplement of paper PMC11061612
